These are literature values, as cited in patent publication US20200390965A1, “TAILORED DOSE OF CONTRAST AGENT” (GE HEALTHCARE AS, priority 2017, published 2020).

For the data set the following is noted: powder form; aggregates dissolve very slowly.

As to `CC(=O)N(CC(O)CN(C(C)=O)c1c(I)c(C(=O)NCC(O)CO)c(I)c(C(=O)NCC(O)CO)c1I)c1c(I)c(C(=O)NCC(O)CO)c(I)c(C(=O)NCC(O)CO)c1I` (centres unmarked) [iodixanol], the solubility in water result is recorded as “highly soluble in water”.

With `CC(=O)N(CC(O)CO)c1c(I)c(C(=O)NCC(O)CO)c(I)c(C(=O)NCC(O)CO)c1I` (centres unmarked) [iohexol], the solubility in water entry is recorded as “highly soluble in water”.
